Reference: patent US20240216320A1, “COMPOSITIONS AND METHODS FOR TREATING SICKLE CELL DISEASE” (Augusta University Research Institute, Inc., priority 2019, published 2024)

What was measured:
[1] = test system: sickle erythroid precursors; test: In vitro sickling assay under 2% oxygen; type: cell-based, human; conditions: 2% oxygen overnight
Method: In vitro sickling studies were conducted as previously published by our group (Zhu, X., et al., Blood, 131:558-562 (2018)). Briefly, after drug inductions of sickle erythroid pre-cursors for 48 h, cells were incubated in 2% oxygen overnight and then fixed with 2% formaldehyde. Erythroid morphology was evaluated microscopically and the number of sickled cells per high power field manually counted for 1000 cells, per triplicates per condition.

[2] = test system: intracellular heme in K562 cells; test: QuantiChrom heme quantitation assay in K562 cells; type: cell-based
Method: The total cellular heme content was determined using the QuantiChrom™ Heme Assay Kit (DIHM-250, BioAssay Systems, Hayward, CA) per the manufacturer's instructions. Briefly, 25 μL of cellular lysate was mixed with 100 μL of detection reagent. The mixture was incubated at room temperature for 5 min followed by measuring the absorbance at 400 nm on a microplate reader. The total heme concentration was calculated based on a formula provided by the manufacturer: Heme concentration=(OD^sample−OD^blank)/(OD^calibrator−OD^blank)×125× dilution factor. This value was normalized by total protein in each sample.

γ-globin promoter = test: ChIP assay, histone acetylation in γ-globin promoter; type: cell-based, human; conditions: for enrichment for AcH3 in the γ-globin promoter: compared to IgG control, dose-dependent
Method: (§1) ChIP assay was performed as previously published by our group with immunoprecipitations for AcH3, AcH4 and TBP antibodies (Santa Cruz Biotechnology) and rabbit IgG as a control. Primers used to quantify in vivo chromatin modifications are as follows: locus control region DNase I hypersensitive site 2 (LCR-HS2) forward […] (SEQ ID NO:1) and reverse […] (SEQ ID NO:2), γ-globin promoter (forward CTGAAACGGTCCCTGGCTA (SEQ ID NO:3), reverse […] (SEQ ID NO:4)), and β-globin promoter (forward […] (SEQ ID NO:5), reverse […] (SEQ ID NO:6)).

[3] = test system: Heme-regulated inhibitor (HRI) kinase; test: Western blot of HRI in K562 cells; type: cell-based; conditions: dose-dependent, maximal
Method: (§2) Western blot analysis was performed using whole cell lysates generated with RIPA buffer (ThermoScientific, Rockford, IL) supplemented with proteinase and phosphatase inhibitor cocktails. For histone acetylation studies, nuclear lysates were prepared by suspending cells in buffer containing 20 mM HEPES, pH 7.9, 50 mM KCl, 420 mM NaCl, 0.1 mM EDTA, 1 mM DTT, 10% glycerol and protease inhibitor mixture for 30 min, followed by centrifugation. Antibodies against HbF (51-7), HbA (37-8), and Tata binding protein (TBP; N-12) were purchased from Santa Cruz Biotechnology (Dallas TX); antibodies against β-actin (A5316) and rabbit IgG (18140) were purchased from Sigma (St. Louis MO). Acetylated histone H3 (AcH3; 06-599) and AcH4 (06-866) antibodies were purchased from Millipore (Burlington, MA).
(§3) Since the biosynthesis of heme prosthetic group requires ALA as a precursor and AN-233 is hydrolyzed to BA and ALA, it was next determined whether heme levels are altered after treatments of K562 cells. Using a colorimetric quantitative assay, a 1.5-fold and 1.8-fold increase (p<0.05) in intracellular heme was observed after 0.25 mM and 0.5 mM AN-233 treatment respectively (FIG. 2A). […] Therefore, K562 cells were treated with AN-233 and phosphorylated and total HRI and eIF2αP levels were measured. […]

[4] = test system: HbS in sickle erythroid precursors; test: Western blot of HbS in sickle erythroid precursors; type: cell-based, human; conditions: 0.25 mM
Method: (§4) For primary cultures, erythroid precursors were generated from peripheral blood mononuclear cells isolated from discard blood of sickle patients under an IRB exempt protocol. These cells were cultured in a two-phase liquid culture system previously published (Li, B., et al., Haematologica 103:e384-e387 (2018)).
(§5) During phase 1, cells were grown in Iscove's Dulecco Media with 15% fetal bovine serum, 15% human AB serum, 10 ng/mL interleukin-3, 50 ng/mL stem cell factor and 2 IU/mL of erythropoietin (Peprotech, Rocky Hill NJ). Phase 2 of culture initiated on day 7 with a similar medium without stem cell factor and interleukin-3. On day 8, erythroid precursors were treated with AN-233 (0.125 mM and 0.25 mM), ethanol (EtOH; […] and 0.016%) and the positive control HU (100 μM) for 48 h and harvested for the various analyses.
Western blot analysis was performed using whole cell lysates generated with RIPA buffer (ThermoScientific, Rockford, IL) supplemented with proteinase and phosphatase inhibitor cocktails. For histone acetylation studies, nuclear lysates were prepared by suspending cells in buffer containing 20 mM HEPES, pH 7.9, 50 mM KCl, 420 mM NaCl, 0.1 mM EDTA, 1 mM DTT, 10% glycerol and protease inhibitor mixture for 30 min, followed by centrifugation. […]

[5] = test system: HbF in β-YAC transgenic mice; test: HbF induction (F-cells, MFI) in β-YAC transgenic mice; type: in vivo, mouse
[6] = test system: HbF in sickle erythroid precursors; test: F-cells and HbF MFI by flow cytometry in sickle erythroid precursors; type: cell-based, human; conditions: sickle erythroid precursors
Method: as §4, §5
To measure percent HbF positive cells (F-cells), K562 cells and erythroid precursors were fixed with 1% formaldehyde, permeabilized with ice-cold acetone:methanol (4:1 ratio) and stained with fluorescein isothiocyanate (FITC) anti-HbF antibody (ab19365, Abcam Cambridge MA) and isotype control IgG antibody (MBS524511, MyBioSource, San Diego CA) was used to detect non-specific staining. The F-cells levels and HbF protein levels measured by mean fluorescence intensity (MFI) were analyzed on an LSR-II flow cytometer (BD Biosciences, San Jose CA) and FlowJo analysis to generate quantitative data.

[7] = test system: eIF2αP (eukaryotic translation initiation factor 2α phosphorylation); test: Western blot of eIF2αP in K562 cells; type: cell-based; conditions: dose-dependent, maximal
Method: as §2, §3

LCR-HS2 = test: ChIP assay, histone acetylation in LCR-HS2; type: cell-based, human
Method: as §1

[8] = test system: acetylated histone H3 (AcH3); test: Western blot of acetylated histone H3 in nuclear lysates of sickle erythroid cells; type: cell-based, human
Method: as §2

CCCC(=O)OC(C)OC(=O)CCC(=O)CN (centres unmarked) [AN-233, 1-(butyryloxy)ethyl-5-amino-4-oxopentanoate]
reduction of the percentage of sickled erythroid precursors [1]: up to 56% | increase in intracellular heme ([2]; 0.25 mM): 1.5 fold | increase in intracellular heme ([2]; 0.5 mM): 1.8 fold | AcH4 levels in the γ-globin promoter (γ-globin promoter; ChIP): increased | enrichment for AcH3 in the γ-globin promoter (γ-globin promoter; first (lower) value): 12 fold | enrichment for AcH3 in the γ-globin promoter (γ-globin promoter; second (higher) value): 30 fold | decrease in HRI [3]: 52% | HbS expression by Western blot [4]: without changing HbS expression | increase in F-cells ([5]; 200 mg/kg ip): 3.4 fold | increase in HbF measured by MFI ([5]; 200 mg/kg ip): 1.4 fold | F-cells ([5]; 200 mg/kg ip, from 15.46%): 52.5% | HbF measured by MFI ([5]; 200 mg/kg ip, from 588 units): 824 units | increase in F-cells ([5]; 300 mg/kg ip): 4.5 fold | increase in HbF measured by MFI ([5]; 300 mg/kg ip): 1.7 fold | F-cells ([5]; 300 mg/kg ip, from 13.5%): 60.6% | HbF measured by MFI ([5]; 300 mg/kg ip, from 447 units): 760 units | increase in F-cells ([6]; 0.125 and 0.25 mM, 48 h, maximal): 2 fold | F-cells ([6]; 0.125 and 0.25 mM, maximal, from 16.31%): 32.5% | increase in HbF measured by MFI ([6]; 48 h): 1.5 fold | decrease in eIF2αP levels [7]: 50% | increase in AcH3 in LCR-HS2 (LCR-HS2): 12.5 fold | increase in AcH4 in LCR-HS2 (LCR-HS2): 5 fold | global AcH3 levels in nuclear lysates [8]: increased global AcH3 levels
